Results: US9115137B2, “2,3,4,5-tetrahydro-1H-pyrido[4,3-B]indole compounds and methods of use thereof” (priority 2008, dated 2015)

Columns and labels:
[1] = molecular target: T1, human recombinant serotonin (5-Hydroxytryptamine) 5-HT2A receptor (Homo sapiens, UniProt P28223); test: Serotonin 5-HT2A radioligand binding ([3H]Ketanserin); conditions: compound at 1 μM; CHO-K1 cells; read-out: Serotonin (1 μM) 5-HT2A, percent inhibition of specific binding
T1 construct: expressed in transfected cells; host or cells: CHO-K1 cells
Description: To evaluate in radioligand binding assays the activity of compounds of the invention, human recombinant serotonin (5-Hydroxytryptamine) 5-HT2A receptor expressed in Chinese hamster ovary (CHO-K1) cells (Bonhaus, D. W. et al. Br. J. Pharmacol. 115:622, 1995; Saucier, C. and Albert, P. R., J. Neurochem. 68:1998, 1997) in a 50 mM Tris-HCl buffer, pH 7.4, was used. Compounds of the invention were incubated with 0.5 nM [^3H]Ketanserin for 60 minutes at 25° C. Non-specific binding was estimated in the presence of 1 μM Mianserin. Receptor proteins were filtered and washed, the filters were then counted to determine [^3H] Ketanserin specifically bound. Compounds were screened at 1 μM or lower, using 1% DMSO as vehicle. Biochemical assay results are presented as the percent inhibition of specific binding in Table 7.

[2] = molecular target: T2, human recombinant serotonin (5-Hydroxytryptamine) 5-HT7 receptor (Homo sapiens, UniProt P34969); test: Serotonin 5-HT7 radioligand binding ([3H]LSD); conditions: compound at 1 μM; CHO cells; read-out: Serotonin (1 μM) 5-HT7, percent inhibition of specific binding
T2 construct: expressed in transfected cells; host or cells: CHO cells
Description: To evaluate in radioligand binding assays the activity of compounds of the invention, human recombinant serotonin (5-Hydroxytryptamine) 5-HT7 receptor expressed in Chinese hamster ovary (CHO) cells (Roth, B. L. et al., J. Pharmacol. Exp. Ther. 268:1403, 1994; Shen, Y. et al., J. Biol. Chem. 268:18200, 1993) in a modified Tris-HCl buffer (50 mM Tris-HCl, pH 7.4, 10 mM MgCl2, 0.5 mM EDTA) was used. Compounds of invention were incubated with 5.5 nM [^3H] Lysergic acid diethylamide (LSD) for 2 hours at 25° C. Non-specific binding was estimated in the presence of 10 μM Serotonin (5-HT). Receptor proteins were filtered and washed, the filters were then counted to determine [^3H]LSD specifically bound. Compounds were screened at 1 μM or lower, using 1% DMSO as vehicle. Biochemical assay results are presented as the percent inhibition of specific binding in Table 7.

T1 sequence (P28223 whole entry): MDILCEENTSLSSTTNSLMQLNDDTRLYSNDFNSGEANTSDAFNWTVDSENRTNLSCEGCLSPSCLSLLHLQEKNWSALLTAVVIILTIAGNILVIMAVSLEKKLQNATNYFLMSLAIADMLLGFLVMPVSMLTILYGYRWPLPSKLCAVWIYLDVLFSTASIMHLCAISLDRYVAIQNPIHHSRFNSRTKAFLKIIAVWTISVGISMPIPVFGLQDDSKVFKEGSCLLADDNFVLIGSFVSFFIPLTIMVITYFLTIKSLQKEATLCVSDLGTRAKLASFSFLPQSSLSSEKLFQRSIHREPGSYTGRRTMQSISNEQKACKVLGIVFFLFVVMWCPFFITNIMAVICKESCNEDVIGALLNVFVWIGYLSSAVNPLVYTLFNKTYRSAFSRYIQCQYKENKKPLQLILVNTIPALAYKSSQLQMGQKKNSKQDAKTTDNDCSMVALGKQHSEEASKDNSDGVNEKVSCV
T2 sequence (P34969 whole entry): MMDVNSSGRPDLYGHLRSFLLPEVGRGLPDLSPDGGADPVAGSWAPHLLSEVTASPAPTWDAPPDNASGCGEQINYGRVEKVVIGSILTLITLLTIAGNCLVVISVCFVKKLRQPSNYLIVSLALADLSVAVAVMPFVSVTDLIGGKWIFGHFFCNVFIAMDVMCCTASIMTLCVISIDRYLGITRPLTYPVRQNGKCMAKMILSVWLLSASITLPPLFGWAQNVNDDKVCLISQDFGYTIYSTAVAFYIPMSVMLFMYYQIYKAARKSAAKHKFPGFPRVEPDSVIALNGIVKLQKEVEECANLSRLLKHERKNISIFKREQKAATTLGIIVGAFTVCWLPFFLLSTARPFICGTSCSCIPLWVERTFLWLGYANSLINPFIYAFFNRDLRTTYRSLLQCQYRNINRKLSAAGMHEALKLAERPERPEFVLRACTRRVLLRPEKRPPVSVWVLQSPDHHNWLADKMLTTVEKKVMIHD

SMILES	inhibition at 1 µM [1] [%]	inhibition at 1 µM [2] [%]
Cc1ccc2c(c1)c1c(n2CCC#N)CCN(C)C1 [CD92, 3-(2,8-dimethyl-3,4-dihydro-1H-pyrido[4,3-b]indol-5(2H)-yl)propanenitrile]	67	
CN1CCc2c(c3cc(Cl)ccc3n2CCC#N)C1 [CD94, 3-(8-chloro-2-methyl-3,4-dihydro-1H-pyrido[4,3-b]indol-5(2H)-yl)propanenitrile]	60	
CN1CCc2c(c3cc(Cl)ccc3n2CC(=O)OC(C)(C)C)C1 [Compound 12, tert-butyl 2-(8-chloro-1,2,3,4-tetrahydro-2-methylpyrido[4,3-b]indol-5-yl)acetate]	81	
CN1CCc2c(c3cc(Cl)ccc3n2CC(=O)OCC2CCCCC2)C1 [Compound 14, cyclohexylmethyl 2-(8-chloro-1,2,3,4-tetrahydro-2-methylpyrido[4,3-b]indol-5-yl)acetate]	103	
CC(C)OC(=O)CCn1c2c(c3cc(Cl)ccc31)CN(C)CC2 [Compound 17, isopropyl 3-(8-chloro-1,2,3,4-tetrahydro-2-methylpyrido[4,3-b]indol-5-yl)propanoate]	84	
CN1CCc2c(c3cc(Cl)ccc3n2CCC(=O)OCc2ccccc2)C1 [Compound 19, benzyl 3-(8-chloro-1,2,3,4-tetrahydro-2-methylpyrido[4,3-b]indol-5-yl)propanoate]	95	
CN1CCc2c(c3cc(Cl)ccc3n2CCC(=O)OCC2CCCCC2)C1 [Compound 20, cyclohexylmethyl 3-(8-chloro-1,2,3,4-tetrahydro-2-methylpyrido[4,3-b]indol-5-yl)propanoate]	102	
CN1CCc2c(c3cc(Cl)ccc3n2CCC(=O)OC2CCCC2)C1 [Compound 21, cyclopentyl 3-(8-chloro-1,2,3,4-tetrahydro-2-methylpyrido[4,3-b]indol-5-yl)propanoate]	98	
Cc1ccc2c(c1)c1c(n2CC(=O)NC(C)(C)C)CCN(C)C1 [Compound 24, N-tert-butyl-2-(1,2,3,4-tetrahydro-2,8-dimethylpyrido[4,3-b]indol-5-yl)acetamide]	9	
Cc1ccc2c(c1)c1c(n2CC(=O)NCC2CCCCC2)CCN(C)C1 [Compound 26, N-(cyclohexylmethyl)-2-(1,2,3,4-tetrahydro-2,8-dimethylpyrido[4,3-b]indol-5-yl)acetamide]	89	
Cc1ccc2c(c1)c1c(n2CCC(=O)NC(C)(C)C)CCN(C)C1 [Compound 28]	17	
Cc1ccc2c(c1)c1c(n2CCC(=O)Nc2ccccc2)CCN(C)C1 [Compound 29]	96	
Cc1ccc2c(c1)c1c(n2CCC(N)=O)CCN(C)C1 [Compound 46, 3-(1,2,3,4-tetrahydro-2,8-dimethylpyrido[4,3-b]indol-5-yl)propanamide]	33	
Cc1ccc2c(c1)c1c(n2CCC(=O)NC(C)C)CCN(C)C1 [Compound 53]	39	
Cc1ccc2c(c1)c1c(n2CCNC(=O)c2ccc(F)cc2)CCN(C)C1 [Compound 66, 4-fluoro-N-(2-(1,2,3,4-tetrahydro-2,8-dimethylpyrido[4,3-b]indol-5-yl)ethyl)benzamide]	98	
CN1CCc2c(c3cc(Cl)ccc3n2CCC(N)=O)C1 [Compound 67, 3-(8-chloro-1,2,3,4-tetrahydro-2-methylpyrido[4,3-b]indol-5-yl)propanamide]	55	
Cc1ccc2c(c1)c1c(n2CCNC(=O)C2CCCC2)CCN(C)C1 [Compound 68, N-(2-(1,2,3,4-tetrahydro-2,8-dimethylpyrido[4,3-b]indol-5-yl)ethyl)cyclopentanecarboxamide]	77	
Cc1ccc2c(c1)c1c(n2CCNC(=O)c2ccncc2C)CCN(C)C1 [Compound 69, N-(2-(1,2,3,4-tetrahydro-2,8-dimethylpyrido[4,3-b]indol-5-yl)ethyl)-3-methylpyridine-4-carboxamide]	30	
Cc1ccc2c(c1)c1c(n2C2CCCCC2O)CCN(C)C1 (centres unmarked) [Compound 73, 2-(1,2,3,4-tetrahydro-2,8-dimethylpyrido[4,3-b]indol-5-yl)cyclohexanol]	50	5
